Experimental data published in patent publication US9936701B2, “Herbicidal compounds” (Syngenta Participations AG, priority 2013, dated 2018).

How the values were obtained:
[1] = test system: a variety of test species; test: Pre-emergence herbicidal activity (glasshouse, sprayed one day after sowing, evaluated after 13 days); type: in vivo; set-up: key: 5=total damage to plant; 0=no damage to plant; conditions: application pre-emergence, rate 1000 g/Ha, scale 0-5
How it was run: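 Visual 0–5 injury score (5 = total damage) taken 13 days after spraying. Treatment applied one day after sowing, before emergence; glasshouse at 24/16 °C day/night, 14 h photoperiod, 65% humidity.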

[2] = test system: a variety of test species; test: Post-emergence herbicidal activity (glasshouse, sprayed after 8 days cultivation, evaluated after 13 days); type: in vivo; set-up: key: 5=total damage to plant; 0=no damage to plant; conditions: rate 1000 g/Ha, scale 0-5
How it was run: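 Seeds were sown in standard soil and cultivated for 8 days under controlled glasshouse conditions. Seedlings were then sprayed with an aqueous solution of the formulated compound containing 0.5% Tween 20. Injury was rated after a further 13 days, where 5 indicated total damage.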

| SMILES | melting point [°C] | Pre-emergence herbicidal damage score, ABUTH [1] | Pre-emergence herbicidal damage score, ALOMY [1] | Pre-emergence herbicidal damage score, AMARE [1] | Pre-emergence herbicidal damage score, ECHCG [1] | Pre-emergence herbicidal damage score, SETFA [1] | Pre-emergence herbicidal damage score, ZEAMX [1] | ABUTH (Abutilon theophrasti) damage score, application post-emergence [2] | ALOMY (Alopecurus myosuroides) damage score, application post-emergence [2] | AMARE (Amaranthus retroflexus) damage score, application post-emergence [2] | ECHCG (Echinochloa crus-galli) damage score, application post-emergence [2] | SETFA (Setaria faberi) damage score, application post-emergence [2] | ZEAMX (Zea mays) damage score, application post-emergence [2] |
| --- | --- | --- | --- | --- | --- | --- | --- | --- | --- | --- | --- | --- | --- |
| CC1=C(Cl)C(=O)N(c2cc(C(C)(C)C#N)on2)C1O (stereo not shown) [A42] | 145 to 147 | 5 | 4 | 5 | 4 | 5 | 2 | 5 | 5 | 5 | 5 | 5 | 4 |
| CCC(C)(CC)c1cc(N2C(=O)C(Cl)=C(C)C2O)no1 (stereo not shown) [A43] | 104 to 106 | 4 | 4 | 5 | 4 | 5 | 2 | 5 | 5 | 5 | 5 | 5 | 2 |
| CC1=C(Cl)C(=O)N(c2noc(C(C)C)c2C#N)C1O (stereo not shown) [A44, 3-(4-chloro-2-hydroxy-3-methyl-5-oxo-2H-pyrrol-1-yl)-5-isopropyl-isoxazole-4-carbonitrile] | 117 to 119 | 5 | 4 | 5 | 4 | 5 | 3 | 5 | 5 | 5 | 5 | 5 | 4 |
| CCC(C)(CC)c1onc(N2C(=O)C(Cl)=C(C)C2O)c1C#N (stereo not shown) [A45] | 129 to 130 | 4 | 3 | 5 | 3 | 4 | 2 | 5 | 5 | 5 | 5 | 5 | 3 |
| CCCC(C)(C)c1onc(N2C(=O)C(Cl)=C(C)C2O)c1C#N (stereo not shown) [A46] | 113 to 115 | 2 | 4 | 5 | 4 | 4 | 3 | 5 | 5 | 5 | 5 | 5 | 3 |
| CCCCC(C)(C)c1onc(N2C(=O)C(Cl)=C(C)C2O)c1C#N (stereo not shown) [A47] | 99 to 101 | 0 | 2 | 5 | 2 | 1 | 2 | 5 | 5 | 5 | 5 | 5 | 2 |
| CCC(C)c1onc(N2C(=O)C(Cl)=C(C)C2O)c1C#N (stereo not shown) [A49] | 107 to 109 | 5 | 3 | 5 | 4 | 5 | 1 | 5 | 4 | 5 | 5 | 5 | 2 |

More lines, main results first:

| melting point [°C] | SMILES | Pre-emergence herbicidal damage score, ABUTH [1] | Pre-emergence herbicidal damage score, ALOMY [1] | Pre-emergence herbicidal damage score, AMARE [1] | Pre-emergence herbicidal damage score, ECHCG [1] | Pre-emergence herbicidal damage score, SETFA [1] | Pre-emergence herbicidal damage score, ZEAMX [1] | ABUTH (Abutilon theophrasti) damage score, application post-emergence [2] | ALOMY (Alopecurus myosuroides) damage score, application post-emergence [2] | AMARE (Amaranthus retroflexus) damage score, application post-emergence [2] | ECHCG (Echinochloa crus-galli) damage score, application post-emergence [2] | SETFA (Setaria faberi) damage score, application post-emergence [2] | ZEAMX (Zea mays) damage score, application post-emergence [2] |
| --- | --- | --- | --- | --- | --- | --- | --- | --- | --- | --- | --- | --- | --- |
| 182 to 184 | CC1=C(Br)C(=O)N(c2noc(C(C)(C)C)c2C#N)C1O (stereo not shown) [A50] | 5 | 3 | 5 | 4 | 5 | 3 | 5 | 4 | 5 | 5 | 5 | 3 |
| 123 to 124 | CCCC1=C(Br)C(=O)N(c2noc(C(C)(C)C)c2C#N)C1O (stereo not shown) [A51] | 4 | 3 | 5 | 4 | 4 | 3 | 5 | 4 | 5 | 5 | 5 | 3 |
| 80 to 82 | CCCC1=C(Br)C(=O)N(c2cc(C(C)(C)C#N)on2)C1O (stereo not shown) [A52] | 5 | 4 | 5 | 5 | 5 | 4 | 5 | 5 | 5 | 5 | 5 | 5 |
| 138 to 140 | CC1=C(Br)C(=O)N(c2cc(C(C)(C)C#N)on2)C1O (stereo not shown) [A53] | 5 | 4 | 5 | 5 | 5 | 4 | 5 | 5 | 5 | 5 | 5 | 5 |
| 133 to 135 | CCCC1=C(Cl)C(=O)N(c2noc(C(C)(C)C)c2C#N)C1O (stereo not shown) [A54] | 5 | 4 | 5 | 5 | 5 | 4 | 5 | 5 | 5 | 5 | 5 | 5 |
| 138 to 140 | CCC1=C(Br)C(=O)N(c2noc(C(C)(C)C)c2C#N)C1O (stereo not shown) [A55] | 5 | 4 | 5 | 5 | 5 | 3 | 5 | 5 | 5 | 5 | 5 | 4 |
